Assay results published in ChEMBL document CHEMBL4842342, “Amidoxime prodrugs convert to potent cell-active multimodal inhibitors of the dengue virus protease” (Eur J Med Chem, 2021).
Active and inactive are the calls of the source. The rule behind the calls is not given here.

Key:
dengue virus type 2 [1] = experiment: Antiviral activity against Dengue virus 2 measured at 48 hrs post-infection; assay type: functional, organism-based
[2] = Cytotoxicity against monkey LLC-MK2 cells assessed as reduction in cell viability by MTT assay; assay type: cell-based, Macaca mulatta; conditions: rhesus monkey
Genome polyprotein [3] = biological target: T1, Genome polyprotein (dengue virus type 2, UniProt P29990); experiment: Inhibition of DENV2 NS2B-NS3 protease assessed as inhibition of protease intermolecular processing
Genome polyprotein [4] = biological target: T1, Genome polyprotein; experiment: Inhibition of DENV2 NS2B-NS3 protease
dengue virus type 2 [5] = experiment: Antiviral activity against DENV2 infected in human Huh-7 cells assessed as log reduction in intracellular viral RNA synthesis at 10 uM treated at 6 hrs post-viral infection and measured after 38 hrs by real time RT-PCR method; assay type: functional
[6] = biological target: Genome polyprotein (dengue virus type 2) (UniProt P29990); experiment: Inhibition of NS2B-NS3 protease in DENV2 infected in human Huh-7 cells assessed as inhibition of NS3 internal cleavage site at 10 uM treated 6 hrs […] viral infection and measured at 30 hrs post-infection by western blot analysis; assay type: cell-based; conditions: time 24.0 hrs
dengue virus type 2 [7] = experiment: Antiviral activity against DENV2 infected in human Huh-7 cells assessed as log reduction in intracellular viral RNA synthesis at 10 uM treated at 6 hrs post-viral infection and measured after 12 hrs by real time RT-PCR method; assay type: functional
dengue virus type 2 [8] = experiment: Antiviral activity against DENV2 infected in human Huh-7 cells assessed as reduction in intracellular viral RNA synthesis at 10 uM treated at 6 hrs post-viral infection and measured after 48 hrs by real time RT-PCR method; assay type: functional, organism-based
dengue virus type 2 [9] = experiment: Antiviral activity against DENV2 infected in human Huh-7 cells assessed as log reduction in extracellular viral RNA synthesis at 10 uM treated at 6 hrs post-viral infection and measured after 48 hrs by real time RT-PCR method; assay type: functional
dengue virus type 2 [10] = experiment: Antiviral activity against DENV2 infected in human Huh-7 cells assessed as viral infection rate at 10 uM treated at 6 hrs post-viral infection and measured at 30 hrs post-infection by confocal microscopy (reference value: 50 to 60%); assay type: functional; conditions: time 24 hrs
dengue virus type 2 [11] = experiment: Antiviral activity against Dengue virus 2 EDEN2 infected in human Huh-7 cells; assay type: functional, organism-based; conditions: EDEN2, Huh-7
[12] = Cytotoxicity against human Huh-7 cells assessed as reduction in cell viability; assay type: cell-based
[13] = Cytotoxicity against human PBMC assessed as reduction in cell viability
dengue virus type 2 [14] = experiment: Antiviral activity against DENV2 D2Y10 virus infected in human PBMC cells in presence of 4G2 antibody; assay type: functional, organism-based
[15] = Dengue virus, 48 h, read-out: EC50

Row | SMILES | EC50 (dengue virus type 2 [1]; [15]) [µM] | also measured
1 | COc1ccc(S(=O)(=O)n2c3ccc(-c4cccc(/C(N)=N/O)c4)cc3c3cc(-c4cccc(/C(N)=N/O)c4)ccc32)cc1C | 3.1 | 
2 | O=C1c2c(O)ccc([N+](=O)[O-])c2C(=O)c2c([N+](=O)[O-])ccc(O)c21 |  | CC50 [2]: 69.4 µM; IC50 (Genome polyprotein [3]): 432 µM
3 | N/C(=N\O)c1cccc(-c2ccc3c(c2)c2cc(-c4cccc(/C(N)=N/O)c4)ccc2n3Cc2ccc(F)cc2)c1 | 8.1 | 
4 | N/C(=N\O)c1cccc(-c2ccc3c(c2)c2cc(-c4cccc(/C(N)=N/O)c4)ccc2n3CC(O)CS(=O)(=O)c2cccc(F)c2)c1 (stereo not drawn) | 8.7 | 
5 | COc1ccc(S(=O)(=O)n2c3ccc(-c4cccc(C(=N)N)c4)cc3c3cc(-c4cccc(C(=N)N)c4)ccc32)cc1 | 9.5 | IC50 (Genome polyprotein [4]; read-out: IC50): 6.6 µM
6 | COc1ccc(S(=O)(=O)n2c3ccc(-c4cccc(/C(N)=N/O)c4)cc3c3cc(-c4cccc(/C(N)=N/O)c4)ccc32)cc1OC | 5.7 | 
7 | N/C(=N\O)c1cccc(-c2ccc3c(c2)c2cc(-c4cccc(/C(N)=N/O)c4)ccc2n3S(=O)(=O)c2cccc(OC(F)(F)F)c2)c1 | 7.7 | IC50 (Genome polyprotein [4]): Not Active
8 | N/C(=N\O)c1cccc(-c2ccc3c(c2)c2cc(-c4cccc(/C(N)=N/O)c4)ccc2n3S(=O)(=O)c2ccc(Br)c(F)c2)c1 | 7.8 | 
9 | N/C(=N\O)c1cccc(-c2ccc3c(c2)c2cc(-c4cccc(/C(N)=N/O)c4)ccc2n3S(=O)(=O)c2cccc3cccnc23)c1 | 8.5 | 
10 | Cc1ccccc1S(=O)(=O)n1c2ccc(-c3cccc(/C(N)=N/O)c3)cc2c2cc(-c3cccc(/C(N)=N/O)c3)ccc21 | 8.6 | 
11 | COc1cccc(S(=O)(=O)n2c3ccc(-c4cccc(C(=N)N)c4)cc3c3cc(-c4cccc(C(=N)N)c4)ccc32)c1 | 26.2 | IC50 (Genome polyprotein [4]; read-out: IC50): 4.5 µM
12 | COc1cccc(S(=O)(=O)n2c3ccc(-c4cccc(/C(N)=N/O)c4)cc3c3cc(-c4cccc(/C(N)=N/O)c4)ccc32)c1 | 8.7 | Activity (dengue virus type 2 [5]): inactive; inhibition [6]: Active; IC50 (Genome polyprotein [4]): Not Active; log(activity) (dengue virus type 2 [7]): 1; Activity (dengue virus type 2 [8]): inactive; log(activity) (dengue virus type 2 [9]): 2; Activity (dengue virus type 2 [10]): 30%
13 | COc1ccc(OC)c(S(=O)(=O)n2c3ccc(-c4cccc(/C(N)=N/O)c4)cc3c3cc(-c4cccc(/C(N)=N/O)c4)ccc32)c1 | 5.1 | 
14 | N/C(=N\O)c1cccc(-c2ccc3c(c2)c2cc(-c4cccc(/C(N)=N/O)c4)ccc2n3S(=O)(=O)c2ccccc2Br)c1 | 7.6 | IC50 (Genome polyprotein [4]): Not Active
15 | N=C(N)c1cccc(-c2ccc3c(c2)c2cc(-c4cccc(C(=N)N)c4)ccc2n3Cc2cccc(Br)c2)c1 |  | EC50 (dengue virus type 2 [11]): 16.4 µM; CC50 [12]: 100 µM; CC50 [13]: > 100 µM; EC50 (dengue virus type 2 [14]): 48.1 µM
16 | COc1cccc(Cn2c3ccc(-c4cccc(-c5noc(=O)[nH]5)c4)cc3c3cc(-c4cccc(-c5noc(=O)[nH]5)c4)ccc32)c1 | 14.5 | IC50 (Genome polyprotein [4]; read-out: IC50): 121 µM
17 | N=C(N)c1cccc(-c2ccc3c(c2)c2cc(-c4cccc(C(=N)N)c4)ccc2n3S(=O)(=O)c2cccc(C(F)(F)F)c2)c1 | 7.3 | IC50 (Genome polyprotein [4]; read-out: IC50): 2.9 µM
18 | N/C(=N\O)c1cccc(-c2ccc3c(c2)c2cc(-c4cccc(/C(N)=N/O)c4)ccc2n3S(=O)(=O)c2cccc(C(F)(F)F)c2)c1 | 5 | IC50 (Genome polyprotein [4]): Not Active
19 | N/C(=N\O)c1cccc(-c2ccc3c(c2)c2cc(-c4cccc(/C(N)=N/O)c4)ccc2n3CC(O)COc2ccccn2)c1 (stereo not drawn) | 33.9 | 
20 | COc1ccc(S(=O)(=O)n2c3ccc(-c4cccc(/C(N)=N/O)c4)cc3c3cc(-c4cccc(/C(N)=N/O)c4)ccc32)cc1Br | 2.4 | 
21 | N/C(=N\O)c1cccc(-c2ccc3c(c2)c2cc(-c4cccc(/C(N)=N/O)c4)ccc2n3Cc2ccc(Br)c(F)c2)c1 | 1.4 | 
22 | COc1ccc(Cn2c3ccc(-c4cccc(/C(N)=N/O)c4)cc3c3cc(-c4cccc(/C(N)=N/O)c4)ccc32)cc1F | 6.9 | 
23 | N/C(=N\O)c1cccc(-c2ccc3c(c2)c2cc(-c4cccc(/C(N)=N/O)c4)ccc2n3S(=O)(=O)c2ccc(C(F)(F)F)cc2)c1 | 4.9 | 
24 | Cn1c2ccc(-c3cccc(/C(N)=N/O)c3)cc2c2cc(-c3cccc(/C(N)=N/O)c3)ccc21 |  | EC50 (dengue virus type 2 [1]): Not Active
25 | N/C(=N\O)c1cccc(-c2ccc3c(c2)c2cc(-c4cccc(/C(N)=N/O)c4)ccc2n3S(=O)(=O)c2cccc(F)c2)c1 | 3.1 | 
